We go through two compounds from US8017649B2, “Flavonoid compounds and uses thereof” (Howard Florey Institute of Experimental Physiology and …, priority 2005, dated 2011).

Test [1] concerns rat aorta precontracted with PE. The test is described as follows: Direct relaxation of PE/U46619-precontracted rat aortic rings. The format is cell-based. How it is done:
Following testing of endothelial integrity, rings were repeatedly washed and re-equilibrated for 30 minutes before the addition of PE (10^−8−2×10^−7 M) and 9,11-dideoxy-9α, 11α-epoxymethano-prostaglandin F2α (U46619, 10^−9-10^−8 M) to produce an active force in the range of 40-60% of KPSS-induced contraction. The level of precontraction was matched between the various groups by adjusting the concentrations of PE and U46619. Cumulative concentration-response curves in the range 10^−8-10^−4 M were conducted for 3′,4′-dihydroxyflavonol, 3-hydroxyflavone-3-hemiadipate, 3′,4′-dihydroxy-3-hemiadipate, 3-hydroxyflavone-3-phosphate.
Experiments were conducted in the presence of an esterase, butyryl cholinesterase (BuCHE, 1000 U/L) for the hemiadipate derivates and a phosphatase 1000 U/L) in the case of the phosphate derivatives.
Following testing of endothelial integrity, rings were repeatedly washed and re-equilibrated for 30 minutes before the addition of PE (10^−8−2×10^−7 M) and 9,11-dideoxy-9α, 11α-epoxymethano-prostaglandin F2α (U46619, 10^−9-10^−7 M) to produce an active force in the range of 40-60% of KPSS-induced contraction. Cumulative concentration-response curves in the range 10^−7-10^−4 M were conducted for vehicle, 3′-hydroxyflavonol, F3HA, DiOHF3HA, F3P. Experiments were conducted in the presence and absence of 1000 U/L BuCHE to cleave the adipate in F3HA and DiOHF3HA. In experiments using F3P 1000 U/L phosphatase was used in some experiments to cleave the phosphate.

Test [2] relates to endothelium intact aortic rings. The test is described as follows: Effect on ACh relaxation of precontracted rat aortic rings. The format is cell-based. To be noted: substance alone. How it is done:
(§1) After wash out and re-equilibration for 30 min, the aortic rings were then submaximally precontracted with PE and U46619, which were used to produce an active tension of 45-60% of the KPSS-induced maximum contraction. When investigating the effects of the flavonoids, flavonol, flavone-3-hemiadipate (F3HA), 3′, 4′-dihydroxyflavone, 3′,4′-dihydroxyflavonol, 3′,4′-dihydroxyflavone-3-hemiadipate (DiOHF3HA), and flavone-3-phosphate (F3P) on vasorelaxant responses, rings were incubated with one of the compounds for 20 mins before they were precontracted submaximally, followed by a cumulative-concentration response curve to ACh (100 nM-10 μM) or SNP ([…]). In experiments using F3P 1000U/L phosphatase was used in some experiments to cleave the phosphate. Some experiments were conducted in the presence and absence of butyryl cholinesterase (BuCHE, 1000 U/L) to cleave the adipate in DiOHF3HA and F3HA.

For test [3], the system named is superoxide anions generated in rat aorta. The test is described as follows: Superoxide anion production in rat isolated aortic segments (lucigenin chemiluminescence, NADPH). The format is cell-based. How it is done: Superoxide anion production in rat isolated aortic segments was determined using lucigenin chemiluminescence. Aortic rings were prepared as described above and then placed in ice-cold Krebs-(N-[2-Hydroxyethyl]piperazine-N′-[2-ethanesulfonic acid] (HEPES buffer) (composition (mM); NaCl 99.0, KCl 4.7, KH2PO4 1.0, MgSO4·7H2O 1.2, D-glucose 11.0, NaHCO3 25.0, CaCl2·2H2O 2.5, Na-HEPES 20.0). Aortic rings were pre-incubated for 45 minutes at 37° C. with a pH 7.4, in Krebs-HEPES buffer containing diethylthiocarbamic acid (DETCA, 10^−3 M) to inactivate superoxide dismutase and β-nicotinamide adenine dinucleotide phosphate (NADPH, 10^−4 M) as a substrate for NADPH oxidase and either 3′,4′-dihydroxyflavonol (10^−4 M) as a positive control, vehicle, 3-hydroxyflavone-3-hemiadipate, 3′,4′-dihydroxy-3-hemiadipate, 3-hydroxyflavone-3-phosphate (10^−8-10^−4 M). Background photon emission was measured for 12 cycles in a 96-well Optiplate containing 0.3 ml per well of Krebs-HEPES buffer together with lucigenin (5×10^−5 M) and vehicle or flavonoid (10^−8-10^−4 M). Each cycle was counted every one minute. After background reading was completed the incubated aortic rings were transferred to the appropriate wells and photon emission was recounted as described above. The tissue was then placed in a 65° C. oven for 48 hours to allow superoxide production to be normalised to dry tissue weight.
The effects of vehicle, 3′,4′-dihydroxyflavone-3-hemiadipate (21) (DiOHF3HA, 10^−8 M-10^−4 M) and DiOHF (10^−4 M) in the presence and absence of Butyryl cholinesterase (BuCHE), 100, 300 and 1000 U/L) on the level of superoxide anions generated in rat isolated aortic segments in the presence of NADPH was expressed as a percentage of control. The method used was as described above except for the addition of the butyryl cholinesterase.
The effect of vehicle, 3-hydroxyflavone-3-phosphate (10^−8 to 10^−4 M) in the presence or absence of phosphatase (1000 U/L) on the level of superoxide anions generated in rat aorta in the presence of NADPH expressed as a percentage of control was determined as described above for the 3′,4′-dihydroxyflavone-3-hemiadipate.

A further test deals with aortic rings. The test is described as follows: Effect on SNP relaxation of precontracted rat aortic rings. Type of test: cell-based. How it is done: as §1
In test [4] the test system is myocardial ischaemia and reperfusion. To be noted: Wang et al., British Journal of Pharmacology (2004) 142, 443-452; cited from earlier work.

“Also recorded” adds a separate entry of the source.

On to `O=C(O)CCCCC(=O)Oc1c(-c2ccc(O)c(O)c2)oc2ccccc2c1=O` [DiOHF3HA, 3′,4′-dihydroxyflavone-3-hemiadipate], for which the entries for the “direct relaxing effect on precontracted vessels” value in test [1] (DiOHF3HA plus 1000 U/L BuCHE) and in test [1] (substance alone) were “marked effect on vascular tone; also recorded: direct relaxation of pre-contracted rat aortic rings only in the presence of the esterase; also recorded: cause direct relaxation of rat aortic rings” and “no effect on PE precontracted vessels”, respectively. Moreover, in test [2], the “effect on relaxant response to ACh” value is “no effect on relaxant responses to ACh or SNP”. For the same compound, the “effect on superoxide generation” value in test [3] (in the presence of cleaving enzyme (BuCHE for hemiadipates, phosphatase for phosphate, 1000 U/L)) is listed as “concentration dependent inhibition of superoxide levels; also recorded: concentration dependent inhibitory effect; also recorded: inhibit superoxide levels produced by rat aorta”; in test [3] (substance alone, no added esterase/phosphatase, up to 10^−4 M, NADPH), “no inhibitory effect on superoxide generation; also recorded: no antioxidant or vascular activity”. The “effect on relaxant response to SNP” value was “significantly increased the sensitivity of the relaxant response to SNP” with aortic rings (in the presence of BuCHE or phosphatase) and “no effect on relaxant responses to ACh or SNP” with aortic rings (substance alone).

With `O=c1c(O)c(-c2ccc(O)c(O)c2)oc2ccccc12` [DiOHF, 3′,4′-Dihydroxyflavonol, reference compound], in test [4], the “infarct and injury associated with myocardial ischaemia and reperfusion” value is “reduce Infarct and injury associated with myocardial ischaemia and reperfusion”.
